Source: PMC9354638, “Targeting p21-activated kinase 4 (PAK4) with pyrazolo[3,4-d]pyrimidine derivative SPA7012 attenuates hepatic ischaemia-reperfusion injury in mice” (Journal of Enzyme Inhibition and Medicinal Chemistry, 2022)
“Also recorded” adds a separate entry of the source.

Assays:
[1] = system: PAK4-mediated phosphorylation of Nrf2; assay: Co-IP analysis of PAK4-mediated Nrf2 phosphorylation in HEK293T cells; assay type: cell-based, human; conditions: HEK293T cells overexpressing Nrf2 and PAK4, 24 h transfection
Description: The human embryonic kidney cell line HEK293T was obtained from the American Type Culture Collection (Manassas, VA, USA). For the Nrf2 reporter gene assay, 1 μg of a plasmid containing a promoter with an ARE driving luciferase expression was used. Exogenous proteins were expressed by transfecting HEK293T cells with 1 μg of Nrf2 and PAK4 with Lipofectamine 3000 (Invitrogen, Carlsbad, CA, USA). Luciferase activity was measured using a Dual-Luciferase Reporter Assay (Promega, Madison, WI, USA) by Lumat LB 9507 (Berthold, Bad Wildbad, Germany).
Nuclear and cytoplasmic fractions were prepared using the NE-PER Nuclear and Cytoplasmic Extraction kit (Thermo Fisher Scientific, Waltham, MA, USA). Tissue homogenates or cell lysates (15 μg) were separated by 6–14% SDS-PAGE and transferred to PVDF membranes. […] Immunoreactive bands were detected with a Las-4000 imager (GE Healthcare Life Science, Pittsburgh, PA, USA).

[2] = system: C57BL/6 male mice with hepatic I/R injury; assay: Model of partial hepatic I/R injury in mice; assay type: in vivo, mouse
Description: Pathogen-free 8 to 10-week old C57BL/6 male mice (Orient Bio, Seoul, Korea) were kept under a 12-h light/dark cycle with controlled humidity of 50% at 22 °C, and had free access to food and water. Hepatic I/R injury was created using the following method.[15] Mice were anaesthetised with ketamine (100 mg/kg) and xylazine (10 mg/kg) by intraperitoneal injection. A midline incision was performed, and an atraumatic clip was placed across the portal vein, hepatic artery, and bile duct just above the right branch. Blood flow was interrupted to the left lateral and median lobes, which represent approximately 70% of the total blood supply to the liver. The liver was kept moist with a gauze soaked in saline, and body temperature was maintained at 37 °C with a warm blanket throughout ischaemia. After 60 min of partial hepatic ischaemia, the clip was removed to initiate reperfusion. The sham mice underwent the same operation without vascular occlusion. After the desired time period of reperfusion, the mice were euthanised by exsanguination under anaesthesia and serum samples were collected. The left lateral and median lobes of the liver were collected and stored at −80 °C until further analysis, or were immediately fixed in 10% formalin. All animal experiments were performed in accordance with the Guide for the Care and Use of Laboratory Animals published by the US National Institutes of Health (NIH Publication No. 85–23, revised 2011). The study protocol was approved by the Institutional Animal Care and Use Committee of Jeonbuk National University (permit number: JBNU-2019–00122).
Alanine aminotransferase (ALT) and aspartate aminotransferase (AST) in serum (Asan Pharm, Seoul, Korea), glutathione (GSH, Arbour Assays, Ann Arbour, MI, USA), malondialdehyde (MDA, ab118970, Abcam, Cambridge, UK) in liver tissues, and lactate dehydrogenase (LDH, Biovision, Milpitas, CA, USA) in culture medium were analysed using specific kits. Serum levels of IL-1β, IL-6, TNF-α, and CCL-2 were detected using ELISA kits (all from Invitrogen).
Total RNA was extracted from frozen liver tissues or primary hepatocytes using TRIzol reagent (Invitrogen). RNA was treated with isopropanol, dried using 70% ethanol, and dissolved in diethyl pyrocarbonate-treated distilled water. First-strand cDNA was generated using the random hexamer primer provided in the first-strand cDNA synthesis kit (Applied Biosystems, Foster City, CA, USA). Specific primers were designed using PrimerBank (https://pga.mgh.harvard.edu/primerbank, Table 1). qPCR reactions were performed in a final volume of 10μ L containing 10 ng reverse-transcribed total RNA, 200 nM forward and reverse primers, and PCR master mixture. qPCR was performed in 384-well plates using an ABI Prism™ 7900HT Sequence Detection System (Applied Biosystems).
Nuclear and cytoplasmic fractions were prepared using the NE-PER Nuclear and Cytoplasmic Extraction kit (Thermo Fisher Scientific, Waltham, MA, USA). Tissue homogenates or cell lysates (15 μg) were separated by 6–14% SDS-PAGE and transferred to PVDF membranes. After blocking with 5% skim milk, blots were probed with primary antibodies against: PAK4 (G222), p-PAK4 (S474), p-IKKβ (S176/180), p-IκBα (S32), p-p65 (S536), cleaved caspase-3 (Asp175), Bax (Cell Signalling Technology, Beverly, MA, USA), GAPDH (A531), lamin B1(L75), Bcl2(P65), NQO1 (F252) (Bioworld Technology, St Louis Park, MN, USA), NF-κB p65 (C-20), IKBα (H-4), IKKβ (10A9B6) (Santa Cruz Biotechnology, Dallas, TX, USA), Nrf2 (Proteintech, Rosemont, IL, USA), HO-1 (Enzo Life Sciences, Farmingdale, New York, USA), and p-Thr (Merck KGaA, Darmstadt, Germany). For co-immunoprecipitations, 600 μg protein was incubated with anti-Nrf2 antibodies (Proteintech, Sankt Leon-Rot, Germany) overnight at 4 °C followed by protein G agarose for 2 h at 4 °C. Blots were probed with antibodies against PAK4, Nrf2, or p-Thr. Immunoreactive bands were detected with a Las-4000 imager (GE Healthcare Life Science, Pittsburgh, PA, USA). […]

[3] = 50 mg/kg intraperitoneal before and during I/R, 1 h ischaemia, 6 h or 24 h reperfusion, vs I/R group

## Cc1nn(-c2cccc(C#CC3(O)CCCCC3)c2)c2ncnc(N)c12 [Compound 14b, 3-(4-Amino-3-methylpyrazolo[3,4-d]pyrimidin-1-yl)phenylethynylcyclohexan-1-ol]
[1]
  PAK4-mediated phosphorylation of Nrf2 at threonine residue: effectively inhibited
[2]; [3]
  Serum ALT level: significantly decreased
  Serum AST level: significantly decreased
[2]; 50 mg/kg, 24 h after reperfusion, listed as SPA7012
  Inflammatory cell infiltration (F4/80-positive macrophages, Ly6G-positive neutrophils) in liver: decreased; also recorded: drastic reduction
[2]; 50 mg/kg, I/R injured mice
  Cytokine production (TNF-α, IL-1β, IL-6, CCL-2; serum protein and liver mRNA): decreased
[2]; 50 mg/kg, Western blotting
  Phosphorylation levels of IKKβ and p65 in liver: substantially decreased
  Protein levels of IκBα in liver: increased
[2]; 50 mg/kg, Western blotting of nuclear extracts, listed as SPA7012
  Nuclear level of Nrf2 in I/R injured liver tissues: considerably increased
[2]; 50 mg/kg, vs I/R group
  4-HNE-positive cells in liver tissues: significantly lower
  Area of necrosis in liver (H&E): significantly smaller
  Hepatic levels of GSH: significantly higher
  MDA level: significantly lower
  TUNEL-positive apoptotic cells in liver tissues: significant reduction
[2]; following SPA7012 treatment, data not shown
  Total- and phospho-protein levels of PPARγ, PTEN, Akt, and GSK-3β: no changes
